Experimental data: PubChem BioAssay (NCI)
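Following 48 hours of exposure in 96-well plates, responses at five concentrations were used to interpolate endpoints linearly. Abbreviation: GI50, concentration required for 50% inhibition of growth. TGI is the concentration that stops growth completely.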

Legend:
Assay in all cases: growth of human tumour cells (NCI), 48 h
[1] = test system: NCI-H23 lung
[2] = test system: ACHN renal
[3] = test system: COLO 205 colon
[4] = test system: OVCAR-5 ovarian
[5] = test system: SF-295 CNS
[6] = test system: HOP-92 NSCLC
[7] = test system: UACC-257 melanoma
[8] = test system: SNB-75 CNS
[9] = test system: HCT-116 colon
[10] = test system: SR leukemia

| SMILES | TGI [1] [µM] | TGI [2] [µM] | TGI [3] [µM] | TGI [4] [µM] | TGI [5] [µM] | TGI [6] [µM] | TGI [7] [µM] | TGI [8] [µM] | GI50 [1] [µM] | GI50 [2] [µM] | GI50 [3] [µM] | GI50 [4] [µM] | GI50 [9] [µM] | TGI [9] [µM] | GI50 [5] [µM] | GI50 [7] [µM] | GI50 [8] [µM] | GI50 [10] [µM] | TGI [10] [µM] | GI50 [6] [µM] |
| --- | --- | --- | --- | --- | --- | --- | --- | --- | --- | --- | --- | --- | --- | --- | --- | --- | --- | --- | --- | --- |
| CN(CC(=O)O)S(=O)(=O)c1ccc2ccccc2c1 | > 100 | > 100 | > 100 | > 100 | > 100 | > 100 | > 100 | > 100 |  |  |  |  |  |  |  |  |  |  |  |  |
| Oc1ccc(Cl)cc1-c1cc(-c2ccccc2Cl)[nH]n1 | > 100 | > 100 | > 100 | > 100 | > 100 |  | > 100 | > 100 | 4.91 | 8.17 | 27.3 | 8.88 | 4.6 | > 100 | 8.71 | 30.8 | 2.77 | 4.12 | > 100 |  |
| O=C(O)CCSC(=O)Nc1cccc(F)c1 | > 100 | > 100 | > 100 | > 100 | > 100 |  | > 100 |  |  |  |  |  |  |  |  |  |  |  | > 100 |  |
| COC(=O)Nc1nc2ccc(S(=O)c3ccccc3)cc2[nH]1 (centres undefined) | > 100 | > 100 | 7.78 | > 100 |  | > 100 | > 100 | 5.75 | 8.79 | 7.59 | 2.51 | 9.12 | 3.5 | > 100 |  | > 100 | 1.75 | 2.25 | > 100 | 9.88 |
| CC1=C(C(=O)Nc2ccc(F)c(Cl)c2)C(c2ccc(Cl)cc2)NC(=O)N1 (centres undefined) | 33.8 | 63 | > 100 | 42.9 | > 100 | 26.6 | 38.6 | 30.5 | 17.4 | 22 | 37.5 | 19.5 | 12.8 | 25.4 | 32.5 | 19.4 | 5.28 |  |  | 11.8 |
| CC(=O)OC(C)C(=O)C1c2cccc(O)c2C(=O)c2c(O)cc(C)cc21 (centres undefined) | 1.15 | 1.85 | 3.01 | 2.59 | 1.19 | 1.02 | 1.4 | 1.83 |  |  |  |  |  | 1.09 |  |  |  |  |  |  |
| CC(=O)[O][Hg][c]1c(N)c(C)cc(C)c1F |  | 3.08 | 3.53 | 3.67 | 21.8 | 2.92 | 2.96 | 5.25 |  | 1.61 | 1.91 | 1.95 | 1.88 | 3.92 | 7.92 | 1.51 | 1.6 | 0.338 |  | 1.53 |
| N#CC(C#N)=c1ccc(=C2NCC3CCCN23)cc1 (centres undefined) |  |  | > 100 | > 100 | > 100 | > 100 | > 100 | > 100 |  |  |  |  |  | > 100 |  |  |  |  | > 100 |  |
| COc1ccc(C2=CSc3cc(Cl)c(C)cc3S(=O)(=O)N2C(C)=O)cc1 | > 100 | 43.7 | > 100 | > 100 |  | > 100 | > 100 |  | 36.4 | 18.8 | 38.5 | 52.7 | 21.3 | 52.5 |  | 36.2 |  | 14.6 | > 100 | 21.9 |
